This is an account of results in US20230276792A1, “SELECTIVE HERBICIDES BASED ON SUBSTITUTED ISOXAZOLIN CARBOXAMIDES AND CLOQUINTOCET-MEXYL” (Bayer Aktiengesellschaft, priority 2020, published 2023).

What all share (type): in vivo
For test [1], the system named is spring barley, HORVS Montoya. Description: Tank-mix post-emergence crop damage, herbicide with and without safener cloquintocet-mexyl, greenhouse. More on the design: key to Reduction [Difference]: damage without safener − damage with safener, % points (0–100% scale). The procedure:
Seeds of crops (spring wheat, TRZAS; spring barley, HORVS; maize, ZEAMA) were placed in sandy loam soil in peat pots, covered with soil and cultivated in a greenhouse under good growth conditions. Two to three weeks after sowing, the test plants were treated at the 1 to 3-leaf stage. The herbicide/safener active compound combinations according to the invention, formulated as wettable powders or emulsion concentrates, and, in parallel tests, the correspondingly formulated individual active compounds were sprayed onto the green parts of the plants in various dosages using an amount of water of 300 l/ha (converted).
The pots were returned under good growing conditions in a glasshouse and a visual assessment of herbicidal effects was made at intervals from 1 to 3 weeks after herbicide application (DAT=days after treatment). Assessment was on a percentage basis in comparison with untreated control plants (0%=no injury, 100%=complete kill).
(§1) Reduction [Difference]=herbicide damage without safener−herbicide damage with safener
(§2) Reduction [%]=(Reduction [Difference]*100)/herbicide damage without safener
(§3) a) Plant Species, Variety: HORVS Montoya, Safener (SAF): Cloquintocet-Mexyl

Test [2] relates to spring wheat, TRZAS Triso. The test is described as follows: Safener seed treatment, post-emergence herbicide application, crop damage. The settings on record: for HER effect + SAF [%] / Reduction [%]: cloquintocet-mexyl 0, 5 g a.i./kg seed; for HER effect [%]: without safener.
Description: (§4) For safener seed treatment trials, sufficient seed amounts of the respective crops (spring wheat (TRZAS); spring barley (HORVS)) were weighed into screw cap glass bottles with a minimum volume trice of the seeds.
(§5) As a first step, specified safeners formulated as wettable powder (WP) or wettable granules (WG) were weighed out for the required dosages (g a.i./kg seed), corresponding to the seed amounts. The safener amounts were mixed with a coloured slurry blind formulation type, pre-diluted with milk at 3.5% fat rate (25 mgs slurry formulation plus 2 ml milk per 10 grams of seed). A tube roller was used for coating. The solutions were gradually pipetted each on the rotating seeds followed by coating for min. 3 hours until all liquid had been soaked up by the seeds. Thereafter, the coated seeds were put flat on open trays for drying over night at room temperature.
(§6) Treated seeds were then placed into pots (7 cm diameter) on the surface of sandy loam, pressed down, flat covered with additional soil and finally covered with sandy soil, also pressed down, watered, and kept under good growth conditions in a greenhouse, until the plants had reached 2-leaf-stage (BBCH 12).
(§7) At that stage, post-emergence application of the specified herbicides was done on: • a) pot sets containing plants with safener-coated seeds as described above, • b) as a reference, pot sets of plants without seed treatment.
(§8) The herbicides were formulated as wettable powder (WP). Equivalent to the spray area, compound amounts were weighed out and diluted related to the water application rate (300 l/ha) to an aqueous suspension plus additive (1 l/ha MERO). Dosage related equivalents were conventionally sprayed on trays with the potted plants.
(§9) After application, the test plants were kept under good growth conditions in a greenhouse. Assessment timings were 10 and 21 days after treatment (DAT) with the herbicide, by visual scoring of the crop damage in % (comparison of untreated with treated plants, either sprayed only with herbicide or with herbicide on plants with treated seeds).
as §1, §2
b) Plant Species, Variety: TRZAS Triso, Safener (SAF): Cloquintocet-Mexyl

Test [3] has as its system spring barley, HORVS Montoya. The test is described as above. More on the design: key to Reduction [Difference]: % crop damage without safener minus % damage with safener. The conditions noted are these: cloquintocet-mexyl 0, 5 g a.i./kg seed.
Description: as §4, §5, §6, §7, §8, §9, §1, §2, §3

The mark [4] stands for this setting: 10 DAT, HER dose 8 g a.i./ha, cloquintocet-mexyl 50 g a.i./ha.
The mark [5] stands for this setting: 21 DAT, HER dose 1, 5 g a.i./ha.
The mark [6] stands for this setting: 10 DAT, HER dose 32 g a.i./ha, cloquintocet-mexyl 100 g a.i./ha.
Where [7] appears, read: 10 DAT, HER dose 48 g a.i./ha, cloquintocet-mexyl 100 g a.i./ha.
[8] abbreviates: 10 DAT, HER dose 1, 5 g a.i./ha.

`COC(=O)C1(C)CC(NC(=O)C2(C(C)(F)F)CC(c3cc(F)cc(F)c3)=NO2)CO1` (mixture of isomers) [Example 1.94]: the “Reduction [Difference]” value amounted to 90 in test [1] (setting [4]); 90 in test [3] (10 DAT, HER dose 8 g a.i./ha); 80 in test [3] (10 DAT, HER dose 32 g a.i./ha). Besides, the “HER effect + SAF [%]” value in test [2] (setting [5]) came out at 0%; in test [2] (21 DAT, HER dose 6 g a.i./ha), 10%; in test [2] (21 DAT, HER dose 24 g a.i./ha), 20%. The “HER effect [%]” value is 20% in test [2] (setting [5]); 85% in test [2] (21 DAT, HER dose 6 g a.i./ha); 85% in test [2] (21 DAT, HER dose 24 g a.i./ha). Moreover, in test [3] (10 DAT, HER dose 32 g a.i./ha), the “Reduction [%]” value is 89%.

As for `COC(=O)C1COCC1NC(=O)C1(C)CC(c2cc(F)cc(F)c2)=NO1` (mixture of isomers) [Example 1.93], the “HER effect + SAF” value in test [1] (setting [4]) stood at 60%; in test [1] (setting [6]), 60%; in test [3] (10 DAT, HER dose 32 g a.i./ha) it was 20%. The “Reduction [%]” value in test [1] (setting [4]) stood at 29%; in test [1] (setting [6]) it was 33%; in test [3] (10 DAT, HER dose 32 g a.i./ha), 78%. Further, the “Reduction [Difference]” value in test [1] (setting [4]) is given as 25; in test [1] (setting [6]) it was 30; in test [3] (10 DAT, HER dose 32 g a.i./ha), 70. The “HER effect + SAF [%]” value in test [2] (21 DAT, HER dose 2 g a.i./ha) was 0%; in test [2] (21 DAT, HER dose 8 g a.i./ha), 10%; in test [2] (21 DAT, HER dose 32 g a.i./ha), 10%. Besides, the “HER effect [%]” value in test [2] (21 DAT, HER dose 2 g a.i./ha) is reported as 85%; in test [2] (21 DAT, HER dose 8 g a.i./ha), 93%; in test [2] (21 DAT, HER dose 32 g a.i./ha), 95%.

Regarding `CSCCOC(=O)C1C=CC(NC(=O)C2(C(F)(F)F)CC(c3cc(F)cc(F)c3)=NO2)C1` (centres unmarked) [Example 1.7], in test [2] (10 DAT, HER dose 2 g a.i./ha), the “HER effect + SAF [%]” value is 0% and the “HER effect [%]” value is 50%. In test [2] (10 DAT, HER dose 8 g a.i./ha), the “HER effect + SAF [%]” value is 30%, the “Reduction [%]” value worked out at 68% and the “HER effect [%]” value worked out at 93%. Besides, in test [2] (10 DAT, HER dose 32 g a.i./ha), the “HER effect + SAF [%]” value worked out at 50%, the “Reduction [%]” value turned out to be 46% and the “HER effect [%]” value was found to be 93%. For the same molecule, in test [3] (21 DAT, HER dose 2 g a.i./ha), the “HER effect + SAF” value was 30% and the “Reduction [Difference]” value came out at 40. In test [3] (21 DAT, HER dose 32 g a.i./ha), the “HER effect + SAF” value was found to be 60%, the “Reduction [%]” value stood at 37% and the “Reduction [Difference]” value stood at 35.

Regarding `CC(C)OC(=O)C1CC(NC(=O)C2(C(C)(F)F)CC(c3cc(F)cc(F)c3)=NO2)CO1` (mixture of isomers) [Example 1.88], in test [1] (21 DAT, HER dose 1, 5 g a.i./ha, cloquintocet-mexyl 50 g a.i./ha), the “Reduction [%]” value is listed as 50%. For the same molecule, in test [2] (21 DAT, HER dose 2 g a.i./ha), the “HER effect + SAF [%]” value stood at 20%, the “Reduction [%]” value is reported as 71% and the “HER effect [%]” value is on record as 70%. In addition, in test [2] (21 DAT, HER dose 8 g a.i./ha), the “HER effect + SAF [%]” value is recorded as 20% and the “HER effect [%]” value worked out at 85%. For the same molecule, the “Reduction [%]” value in test [3] (21 DAT, HER dose 2 g a.i./ha) is given as 40%. In test [3] (21 DAT, HER dose 8 g a.i./ha), the “HER effect + SAF” value was determined as 40%, the “Reduction [%]” value was 53% and the “Reduction [Difference]” value was determined as 45.

On to `COC(=O)C1CC(NC(=O)C2(OC)CC(c3cc(F)cc(F)c3)=NO2)CO1` (mixture of isomers) [Example 1.72], for which, in test [1] (setting [4]), the “Reduction [%]” value worked out at 67%. Moreover, in test [1] (setting [6]), the “HER effect + SAF” value is reported as 20% and the “Reduction [%]” value was determined as 60%. Also, in test [2] (21 DAT, HER dose 32 g a.i./ha), the “HER effect + SAF [%]” value amounted to 10% and the “HER effect [%]” value was determined as 60%.

`CC1(C(=O)NC2CC=C(C(=O)NS(C)(=O)=O)C2)CC(c2cc(F)cc(F)c2)=NO1` (mixture of isomers) [Example 1.61]: in test [2] (10 DAT, HER dose 8 g a.i./ha), the “HER effect + SAF [%]” value stood at 0%, the “Reduction [%]” value is 100% and the “HER effect [%]” value was 50%. In test [2] (10 DAT, HER dose 32 g a.i./ha), the “HER effect + SAF [%]” value is on record as 0%, the “Reduction [%]” value is on record as 100% and the “HER effect [%]” value was 50%.

With `C=CCOC(=O)C1CC(NC(=O)C2(C=C)CC(c3cc(C)cc(F)c3)=NO2)CO1` (mixture of isomers) [Example 1.85], in test [3] (10 DAT, HER dose 32 g a.i./ha), the “HER effect + SAF” value worked out at 10%, the “Reduction [%]” value amounted to 88% and the “Reduction [Difference]” value was determined as 70.

Consider `CCOC(=O)C1C=CC(NC(=O)C2(C(F)(F)F)CC(c3cc(OC)cc(OC)c3)=NO2)C1` (mixture of isomers) [Example 1.12], for which, in test [1] (setting [7]), the “HER effect + SAF” value came to 10%, the “Reduction [%]” value is listed as 83% and the “Reduction [Difference]” value is 50.

On to `CCOC(=O)C1CC(NC(=O)C2(C)CC(c3cccc(F)c3)=NO2)CO1` (mixture of isomers) [Example 1.67], for which the “Reduction [%]” value in test [1] (10 DAT, HER dose 16 g a.i./ha, cloquintocet-mexyl 100 g a.i./ha) was 83%; in test [3] (10 DAT, HER dose 4 g a.i./ha), 67%; in test [3] (10 DAT, HER dose 16 g a.i./ha) it was 67%. Also, the “HER effect + SAF [%]” value in test [2] (10 DAT, HER dose 4 g a.i./ha) is 10%; in test [2] (10 DAT, HER dose 16 g a.i./ha) it was 20%. Also, the “HER effect [%]” value is given as 50% in test [2] (10 DAT, HER dose 4 g a.i./ha) and 70% in test [2] (10 DAT, HER dose 16 g a.i./ha). The “Reduction [Difference]” value in test [3] (10 DAT, HER dose 4 g a.i./ha) was 20.

Consider `CC(C)OC(=O)C1CC(NC(=O)C2(C)CC(c3cccc(F)c3)=NO2)CO1` (mixture of isomers) [Example 1.78], for which the “HER effect + SAF [%]” value is reported as 0% in test [2] (setting [8]); 0% in test [2] (10 DAT, HER dose 6 g a.i./ha); 10% in test [2] (10 DAT, HER dose 24 g a.i./ha). The “HER effect [%]” value in test [2] (setting [8]) is listed as 20%; in test [2] (10 DAT, HER dose 6 g a.i./ha), 70%; in test [2] (10 DAT, HER dose 24 g a.i./ha) it was 70%.

Take `C=CC1(C(=O)NC2COC(C(=O)OCCOC)C2)CC(c2cc(C)cc(F)c2)=NO1` (mixture of isomers) [Example 1.65]: in test [2] (10 DAT, HER dose 8 g a.i./ha), the “HER effect + SAF [%]” value is 0% and the “HER effect [%]” value is 20%. In test [3] (10 DAT, HER dose 8 g a.i./ha), the “Reduction [Difference]” value was found to be 80. Besides, in test [3] (10 DAT, HER dose 32 g a.i./ha), the “HER effect + SAF” value came out at 10%, the “Reduction [%]” value worked out at 88% and the “Reduction [Difference]” value stood at 70.

Turning to `COC(=O)C1C=CC(NC(=O)C2(C(F)(F)F)CC(c3cccc(F)c3)=NO2)C1` (centres unmarked) [Example 1.18], the “Reduction [Difference]” value in test [3] (10 DAT, HER dose 32 g a.i./ha) worked out at 80.
